Test results from PubChem BioAssay AID1949 (Southern Research Institute, 2009).
Values after ≈ are worked out from the molar mass of the structure shown. Records with an inconclusive call do not appear. Active and inactive are the calls of the source. No rule for the calls is given here.

Test system: M. tuberculosis H37Rv growth inhibition
Test: Mycobacterium tuberculosis H37Rv growth inhibition, cell based, confirmatory dose response (AID 1949);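 also: bacteria grown 7 days with compound before Alamar blue readout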

SMILES	IC50
CC(C)OC(=O)C(C)Oc1ccc2c(-c3ccccc3)cc(=O)oc2c1 (stereo not given)	1.63 µg/mL (≈ 4.63 µM)
CC1(C)CC(=O)C2=C(C1)NC1=C(C(=O)c3ccccc31)C2c1ccc(C(F)(F)F)cc1 (stereo not given)	30.3 µg/mL (≈ 71.7 µM)
CC(C)CCNC(=O)C(=O)Nc1ccccc1Cl	0.84 µg/mL (≈ 3.13 µM)
CCOc1ccccc1C(=O)Nc1ccccc1O	8.93 µg/mL (≈ 34.7 µM)
O=C(NCCc1ccc(F)cc1)NC12CC3CC(CC(C3)C1)C2	0.21 µg/mL (≈ 0.664 µM)
COC(=O)C(C)Oc1ccc2c(=O)c(-c3ccc(Br)cc3)c(C)oc2c1 (stereo not given)	2.42 µg/mL (≈ 5.8 µM)
Cc1ccc(-c2cnc(C)c(-c3ccccc3)c2)nc1-c1ccccc1	> 50 µg/mL (inactive)
Cc1cc(N2CCCC2)c(C)cc1/C=C\[N+](=O)[O-]	> 50 µg/mL (inactive)
COC(=O)COc1ccc(NC(=O)COc2cccc(C)c2)cc1	0.77 µg/mL (≈ 2.34 µM)
O=C(Oc1ccc(Cl)cc1)c1ccc(S(=O)(=O)c2ccc(Cl)cc2)cc1	1.02 µg/mL (≈ 2.5 µM)
CCC(C)(C)c1ccc(OCCCn2ccnc2)cc1	1.92 µg/mL (≈ 7.05 µM)
Cc1ccc(Nc2nc(NCc3ccco3)c3ccccc3n2)cc1	1.44 µg/mL (≈ 4.36 µM)
O=C(OCc1ccccn1)c1ccc(COc2cccc3ccccc23)cc1	6.98 µg/mL (≈ 18.9 µM)
O=[N+]([O-])c1c(Nc2ccccc2)[nH]c2ccccc12	9.27 µg/mL (≈ 36.6 µM)
Cc1ccc(SCC(=O)Nc2ccc(C)c([N+](=O)[O-])c2)cc1	2.18 µg/mL (≈ 6.89 µM)
Cc1ccc2nc(/C(C#N)=C\c3c[nH]c4ccc(Br)cc34)[nH]c2c1	0.62 µg/mL (≈ 1.64 µM)
Cc1ccnc(NC(=O)COc2ccc([N+](=O)[O-])cc2)c1	0.43 µg/mL (≈ 1.5 µM)
O=S(=O)(Nc1cc(Sc2ccccc2)c(O)c2ccccc12)c1cccs1	25.7 µg/mL (≈ 62.2 µM)
CCC(=O)Nc1ccc2oc(-c3c(F)c(F)c(F)c(F)c3F)nc2c1	10.5 µg/mL (≈ 29.4 µM)
CC(C)(C)c1ccc(C(=O)NC(=S)N2CCCC2)cc1	1.35 µg/mL (≈ 4.65 µM)
COc1ccc(-c2[nH]c(-c3ccc([N+](=O)[O-])cc3)nc2-c2ccccc2)cc1	2.33 µg/mL (≈ 6.27 µM)
O=c1oc(-c2ccccc2F)nc2sc3c(c12)CCCC3	> 50 µg/mL (inactive)
COC(=O)COc1cccc(NC(=O)c2ccc(Cl)cc2)c1	0.21 µg/mL (≈ 0.657 µM)

SMILES	IC50
Cc1ccc(-c2csc3ncn(C(C)C(=O)OC4CCCCC4)c(=O)c23)cc1C (stereo not given)	1.52 µg/mL (≈ 3.7 µM)
CC(C)(C)c1cc(Cl)c(O)c(NC(=S)NC(=O)c2cncc(Br)c2)c1	< 0.1 µg/mL
O=C(Oc1c(Cl)cc(Cl)c2cccnc12)c1cc(S(=O)(=O)N2CCCCC2)ccc1Cl	0.48 µg/mL (≈ 0.96 µM)
C1=CC2CC1CC2CN1CCC(N(CCc2ccccc2)Cc2ccccc2)CC1 (stereo not given)	1.4 µg/mL (≈ 3.49 µM)
COC(=O)COc1ccc2c(=O)c(Oc3ccccc3F)c(C)oc2c1C	6.55 µg/mL (≈ 17.6 µM)
CN1CCN(C(=S)NC(=O)c2ccc(-c3ccccc3)cc2)CC1	1.04 µg/mL (≈ 3.06 µM)
N#Cc1ccc(NC(=O)CSc2ccc(Br)cc2)cc1	3.04 µg/mL (≈ 8.75 µM)
O=C(/C=C\c1ccccc1)Nc1cccc(-c2nc3ccccc3[nH]2)c1	7.66 µg/mL (≈ 22.6 µM)
O=[N+]([O-])c1ncn(Cc2ccc(F)cc2Cl)n1	6.92 µg/mL (≈ 27 µM)
CC(=O)Oc1cccc2ccc(/C=C/c3c(F)cccc3Cl)nc12	< 0.1 µg/mL
CC(C)C1C(c2ccccc2)NC(c2ccccc2)CC1(O)c1ccc(F)cc1 (stereo not given)	10.1 µg/mL (≈ 25.9 µM)
O=C(Nc1ccc(Cl)c(Cl)c1)c1ccc(Cl)cc1Cl	5.19 µg/mL (≈ 15.5 µM)
Cc1cc(C)cc(COc2ccc3c(C)c(CCC(=O)O)c(=O)oc3c2C)c1	0.32 µg/mL (≈ 0.841 µM)
Cc1cc(-n2c(C)cc(/C=C3\NC(=O)NC3=O)c2C)ccc1Br	8.38 µg/mL (≈ 22.4 µM)
O=C(Nc1ccc(OCC(F)(F)C(F)F)c(C(F)(F)F)c1)c1ccccc1O	5.26 µg/mL (≈ 12.8 µM)
O=C(CSc1nnc(-c2ccccc2)o1)N1CCc2ccccc2C1	9.27 µg/mL (≈ 26.4 µM)
CC(C)C(=O)Nc1ccc(C(=O)Oc2ccccc2)c(O)c1	< 0.1 µg/mL
C=CCNCCCOc1ccc(Cl)cc1C(C)(C)C	6.96 µg/mL (≈ 24.7 µM)
COc1ccc(Cl)cc1CN1CCN(c2ncnc3scc(-c4ccccc4)c23)CC1	4.15 µg/mL (≈ 9.2 µM)
COC(=O)c1c(C)oc2ccc(OC(=O)c3cccc([N+](=O)[O-])c3)cc12	3.65 µg/mL (≈ 10.3 µM)
CCOC(=O)COc1ccc(C(=O)Nc2ccc(F)cc2)cc1	< 0.1 µg/mL
FC(F)(F)c1cccc(NC(=S)Nc2ccc(Cl)cc2Cl)c1	12.1 µg/mL (≈ 33.1 µM)
COc1ccc(NC(=O)c2ccccc2Oc2ccccc2)c(OC)c1	< 0.1 µg/mL

SMILES	IC50
Cc1cc2ncn(CCCCOc3ccccc3)c2cc1C	4.6 µg/mL (≈ 15.6 µM)
CCOC(=O)COc1ccc(S(=O)(=O)Nc2cc(C)cc(C)c2)cc1	4.03 µg/mL (≈ 11.1 µM)
Cc1csc(NC(=O)CSc2ccc(Br)cc2)n1	5.62 µg/mL (≈ 16.4 µM)
CCc1ccc(-c2nn(-c3ccccc3)cc2CO)cc1	5.36 µg/mL (≈ 19.3 µM)
Cc1ccc(-c2[nH]c(-c3ccc([N+](=O)[O-])cc3)nc2-c2ccccc2)cc1	7.13 µg/mL (≈ 20.1 µM)
CC(CCc1ccccc1)Nc1cc(N2CCNCC2)ccc1[N+](=O)[O-] (stereo not given)	> 50 µg/mL (inactive)
O=C(Nc1ccc(F)cc1)NC1CCCCCCC1	2.53 µg/mL (≈ 9.57 µM)
OC(COc1ccc2ccccc2c1)CN1CCCN(CC(O)COc2ccc3ccccc3c2)CC1 (stereo not given)	0.73 µg/mL (≈ 1.46 µM)
COc1ccc(C2CC(=O)C3=C(C2)NC(C)=C(C(=O)Nc2ccccc2C)C3c2coc3ccc(C)cc3c2=O)cc1OC (stereo not given)	3.7 µg/mL (≈ 6.26 µM)
N#C/C(=C\C=C\c1ccco1)c1nc2c(s1)CCCC2	9.33 µg/mL (≈ 33 µM)
COC(=O)COc1ccc(NC(=O)c2ccc3c(c2)C(=O)N(C(C)(C)C)C3=O)cc1	0.32 µg/mL (≈ 0.78 µM)
O=C(COc1ccc(Br)cc1)c1ccc(F)cc1	10.7 µg/mL (≈ 34.5 µM)
CC(C)(C)c1ccc(-c2noc(-c3cccnc3)n2)cc1	4.34 µg/mL (≈ 15.5 µM)
Cc1ccc(N2C(=O)c3cccc4c(N5CCN(C)CC5)ccc(c34)C2=O)c2cccnc12	49.3 µg/mL (≈ 113 µM)
CCOC(=O)c1cc(CC)sc1NC(=O)c1cc2ccccc2oc1=O	0.38 µg/mL (≈ 1.02 µM)
CCOC(=O)COc1ccc(Br)c(C=O)c1	5.47 µg/mL (≈ 19.1 µM)
CCOC(=O)COc1ccc(S(=O)(=O)Nc2cccc(Cl)c2C)cc1	3.03 µg/mL (≈ 7.89 µM)
Cc1cccc(Nc2cc(Cl)c3nonc3c2[N+](=O)[O-])c1C	1.28 µg/mL (≈ 4.02 µM)
CCOC(=O)C(C)Oc1ccc2c(=O)c(-c3ccc(Br)cc3)coc2c1 (stereo not given)	> 50 µg/mL (inactive)
COc1ccc(C(=O)NC(=S)Nc2ccc([N+](=O)[O-])cc2O)cc1Br	< 0.1 µg/mL
c1ccc(CCc2ccccc2-c2nc(-c3ccncc3)no2)cc1	8.77 µg/mL (≈ 26.8 µM)
Cn1c(=O)[nH]c2nnc(-c3ccccn3)nc2c1=O	> 50 µg/mL (inactive)
CN(C)S(=O)(=O)c1ccc(NC(=S)NC(=O)CCCOc2ccc(Cl)cc2Cl)cc1	5.38 µg/mL (≈ 11 µM)

SMILES	IC50
CC1(C)C=Cc2c(nc3ccccc3c2NCc2ccccc2)C1	1.47 µg/mL (≈ 4.68 µM)
Cc1c(Cl)cccc1NC(=O)c1ccc(OC(C)C(=O)OC2CCCCC2)cc1 (stereo not given)	< 0.1 µg/mL
CCOc1cc(CNCCO)cc(Br)c1OCc1ccc(Cl)cc1Cl	1.54 µg/mL (≈ 3.43 µM)
COC(=O)c1ccc2nc(C)cc(Nc3ccc(OCc4ccccc4)cc3)c2c1	1.2 µg/mL (≈ 3.01 µM)
Cc1cc(OC(=O)C2CC2)c2c3c(c(=O)oc2c1)CCCC3	1.44 µg/mL (≈ 4.83 µM)
Cc1ccc(-c2ccc(/C=C/C(=O)c3ccco3)o2)cc1	1.71 µg/mL (≈ 6.14 µM)
O=C(Oc1ccccc1)c1ccc(S(=O)(=O)N2CCCCC2)cc1	0.73 µg/mL (≈ 2.11 µM)
CCCOc1ccc(C(=O)NC(=S)Nc2ccc(C(=O)O)cc2)cc1	0.12 µg/mL (≈ 0.335 µM)
COc1ccc2oc(=O)c(C(=O)Oc3ccc(Cl)cc3)cc2c1	> 50 µg/mL (inactive)
O=[N+]([O-])c1ccc(-c2[nH]c(-c3cccc(F)c3)nc2-c2ccccc2)cc1	2.62 µg/mL (≈ 7.29 µM)
COc1ccc(C(=S)N2CC(C)OC(C)C2)c(OC)c1 (stereo not given)	> 50 µg/mL (inactive)
CCOC(=O)COc1cc2oc(=O)cc(CC)c2cc1Cl	1.43 µg/mL (≈ 4.6 µM)
CCCCc1cc(=O)oc2cc(OCC(=O)OCc3ccccc3)c(Cl)cc12	< 0.1 µg/mL
CC(=O)c1c(C)n([O-])c2cc(Cl)c(Cl)cc2[n+]1=O	5.48 µg/mL (≈ 19.1 µM)
N=c1c2c(-c3ccccc3)c(-c3ccccc3)n(Cc3ccco3)c2ncn1Cc1ccco1	3.09 µg/mL (≈ 6.92 µM)
O=C(Oc1cccc2cccnc12)c1cc2ccccc2oc1=O	3.06 µg/mL (≈ 9.64 µM)
Cc1ccc(S(=O)(=O)c2nc(S(=O)(=O)Cc3ccc([N+](=O)[O-])cc3)sc2Cl)cc1	1.04 µg/mL (≈ 2.2 µM)
CC1C(c2ccccc2)=[N+]([O-])C(C)(c2ccc(F)cc2)N1O (stereo not given)	> 50 µg/mL (inactive)
Cc1cc(=O)oc2c(C)c(OCC(=O)OCc3ccccc3)ccc12	2.11 µg/mL (≈ 6.24 µM)
COc1ccc2nc(/C(C#N)=C\c3cccn3-c3ccccc3F)[nH]c2c1	4.8 µg/mL (≈ 13.4 µM)
COC(=O)c1ccc2c(=O)n(-c3ccccc3)c(SCc3ccccc3)nc2c1	22.6 µg/mL (≈ 56.2 µM)
O=C(CC12CC3CC(CC(C3)C1)C2)Nc1ccc2ccccc2c1	< 0.1 µg/mL
COc1ccc(CCNC(=S)N2CCN(c3ccc(Cl)c(Cl)c3)CC2)cc1OC	6.47 µg/mL (≈ 14.2 µM)

SMILES	IC50
O=[N+]([O-])/C=C/c1ccc(-c2ccc(F)cc2)o1	10.1 µg/mL (≈ 43.3 µM)
O=c1cc(Cc2ccccc2)nc2c(-c3ccccc3)c[nH]n12	0.36 µg/mL (≈ 1.19 µM)
COc1ccc(NC(=O)c2ccc(C#CC(C)(C)O)s2)cc1	0.31 µg/mL (≈ 0.983 µM)
COc1cccc(N2CCN(Cc3nc(N)nc(Nc4ccc(C)c(C)c4)n3)CC2)c1	2.82 µg/mL (≈ 6.72 µM)
O=C(NC(=S)Nc1ccccc1N1CCCC1)c1cccc2ccccc12	0.36 µg/mL (≈ 0.959 µM)
CC(=O)c1ccc(NC(=O)Nc2cc(OCC(F)(F)F)cc(OCC(F)(F)C(F)F)c2)cc1	2.74 µg/mL (≈ 5.68 µM)
CCCc1nc2ccccc2n1CC(O)COc1ccc(Br)cc1 (stereo not given)	4.08 µg/mL (≈ 10.5 µM)
CC1=NN(C(=O)c2ccccc2)C(O)(c2ccncc2)C1 (stereo not given)	< 0.1 µg/mL
CC(C)(C)NCCCOc1ccc(Cl)cc1C(C)(C)C	23.3 µg/mL (≈ 78.2 µM)
CN(C)c1ccc(NC(=O)c2ccncc2)cc1	2.89 µg/mL (≈ 12 µM)
Cc1ccc(/C=C/[N+](=O)[O-])cc1Br	239 µg/mL (≈ 987 µM)
CCOC(=O)COc1ccc2c(=O)c(Oc3ccccc3Cl)coc2c1	2.08 µg/mL (≈ 5.55 µM)
CC1CCCCC1NC(=O)CSc1nc2ccccc2c(=O)[nH]1 (stereo not given)	18.4 µg/mL (≈ 55.5 µM)
O=C(CCN1C(=O)C2C3C=CC(C3)C2C1=O)Oc1cccc2cccnc12 (stereo not given)	14.8 µg/mL (≈ 40.7 µM)
O=C(CC(Nc1ccc(F)cc1)c1ccccc1)c1ccccc1 (stereo not given)	9.26 µg/mL (≈ 29 µM)
Cc1ccc(-c2csc3nc(SCC(N)=O)n(-c4ccccc4)c(=O)c23)cc1C	2.98 µg/mL (≈ 7.07 µM)
CC1CCCN(Cc2c(O)ccc3c(=O)c(-c4nc5ccccc5s4)c(N)oc23)C1 (stereo not given)	23.6 µg/mL (≈ 55.9 µM)
O=C(Nc1nc2ccc(F)cc2s1)c1ccc([N+](=O)[O-])o1	5.11 µg/mL (≈ 16.6 µM)
O=C(COc1ccc(-c2ccccc2)cc1)OC1CCCCC1	0.65 µg/mL (≈ 2.09 µM)
Cc1ccc(NCCC(=O)c2ccc([N+](=O)[O-])cc2)cc1Cl	19.6 µg/mL (≈ 61.3 µM)
CCc1ccc(OCC(=O)Nc2cccc(F)c2)cc1	1.74 µg/mL (≈ 6.37 µM)
Cc1ccc(C(=O)N2CCN(c3ccc(NC(=O)COc4c(C)cc(C)cc4Cl)cc3)CC2)cc1	8.74 µg/mL (≈ 17.8 µM)
CN(C)C(=O)CSc1cccc2cccnc12	6.25 µg/mL (≈ 25.4 µM)
